IC50 data for two molecules are collected here from paper PMC10373461, “Discovery of a Hidden Trypanosoma cruzi Spermidine Synthase Binding Site and Inhibitors through In Silico, In Vitro, and X-ray Crystallography” (ACS Omega, 2023).

Experiment [1] addresses T1, Trypanosoma cruzi spermidine synthase (TcSpdSyn) (Trypanosoma cruzi, UniProt Q4DA73).
T1 construct: gene Tc00.1047053510339.50
T1 sequence (Q4DA73 1-296): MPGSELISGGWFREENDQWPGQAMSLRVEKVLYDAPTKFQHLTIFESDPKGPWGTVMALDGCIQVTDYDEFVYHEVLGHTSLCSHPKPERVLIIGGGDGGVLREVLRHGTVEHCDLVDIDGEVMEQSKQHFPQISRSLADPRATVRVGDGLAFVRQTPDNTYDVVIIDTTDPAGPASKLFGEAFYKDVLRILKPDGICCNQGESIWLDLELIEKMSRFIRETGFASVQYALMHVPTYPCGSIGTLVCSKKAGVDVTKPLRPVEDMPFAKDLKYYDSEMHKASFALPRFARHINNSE
Kind of experiment: X-ray co-crystal structure; SSAT1-coupled enzyme inhibition assay. The experiment is classed as biochemical.

The target in experiment [2] is T1, Trypanosoma cruzi spermidine synthase (TcSpdSyn). Kind of experiment: X-ray co-crystal structure; SSAT1-coupled enzyme inhibition assay (hydrochloride salt). The class given is biochemical.

Molecule `COc1ccc(C2=N[C@H](C)CN2)c(O)c1` [compound 1] gave an IC50 in experiment [1] of 82.3 µM. Consider `COc1ccc(Nc2ccnc3ccccc23)cc1` [compound 2], for which, in experiment [2], the IC50 was 43.4 µM.
